Key:
Test in all cases: X-ray crystal structure, […] A
Type in all cases: binding
PaGT3 [1] = target: T1, PaGT3 (Phytolacca americana, UniProt B5MGN9); details: co-crystallized without acceptor; sugar-donor site; non-transferred donor analogue; also bound in 7vej and 7vek
T1 construct: full length; N-terminal His6 tag with TEV site, cut off (one Gly left before Met1); expressed in E. coli BL21 (DE3); two molecules in the asymmetric unit

PaGT3 [2] = target: T1, PaGT3; details: soaked into PaGT3/UDP-2FGlc crystals; acceptor site, molecule B only, occupancy 0.8
PaGT3 [3] = target: T1, PaGT3; details: co-crystallized with UDP-2FGlc; acceptor site, both molecules, two different positions

T1 sequence (B5MGN9 entry or part of it): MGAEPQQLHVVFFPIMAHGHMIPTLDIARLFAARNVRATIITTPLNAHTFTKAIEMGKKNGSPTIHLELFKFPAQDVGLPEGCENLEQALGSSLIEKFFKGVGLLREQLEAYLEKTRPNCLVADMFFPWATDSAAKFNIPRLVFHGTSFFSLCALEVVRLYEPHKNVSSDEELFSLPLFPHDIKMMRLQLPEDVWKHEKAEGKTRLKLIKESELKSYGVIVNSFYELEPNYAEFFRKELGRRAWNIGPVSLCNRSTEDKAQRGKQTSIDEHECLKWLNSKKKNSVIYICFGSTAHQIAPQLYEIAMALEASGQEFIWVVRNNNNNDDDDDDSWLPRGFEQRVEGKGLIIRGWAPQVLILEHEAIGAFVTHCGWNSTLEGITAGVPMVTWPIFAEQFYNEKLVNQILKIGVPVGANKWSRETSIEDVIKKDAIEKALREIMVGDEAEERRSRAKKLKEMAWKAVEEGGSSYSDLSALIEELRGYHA

Compound: O=c1ccn([C@@H]2O[C@H](COP(=O)(O)OP(=O)(O)O[C@H]3O[C@H](CO)[C@@H](O)[C@H](O)[C@H]3F)[C@@H](O)[C@H]2O)c(=O)[nH]1 [UDP-2FGlc]
- X-ray crystal structure, 2.20 A (PaGT3 [1]): The crystal structure of PaGT3 with the sugar-donor analogue UDP-2FGlc was determined

Compound: COc1cc(CNC(=O)CCCC/C=C/C(C)C)ccc1O [capsaicin]
- X-ray crystal structure, 2.60 A (PaGT3 [2]): The calculated polder map confirms the occupancy of capsaicin in PaGT3 molecule B.

Compound: O=c1c(O)c(-c2ccc(O)cc2)oc2cc(O)cc(O)c12 [kaempferol]
- X-ray crystal structure, 1.85 A (PaGT3 [3]): The electron density of kaempferol in both molecules of the enzyme
